Test results published in PubChem BioAssay AID1259407 (Chemical Carcinogenesis Research Information System (CCRIS), 2018).
The source made the active and inactive calls. No rule for the calls is given here.

Tested on: CCRIS mutagenicity, Ames/micronucleus/aberration tests
Test: CCRIS mutagenicity studies

Measured: mutagenic call

CS(C)=O
inactive: End Point: IN VITRO CHROMOSOMAL ABERRATIONS, Test System: CHO-LB CELLS, Metabolic Activation: NONE inactive; negative | End Point: IN VITRO CHROMOSOMAL ABERRATIONS, Test System: CHO-LB CELLS, Metabolic Activation: RAT, LIVER, S-9, AROCLOR 1254 inactive; negative | Test System: AMES SALMONELLA TYPHIMURIUM, Strain/Indicator: TA97, Metabolic Activation: HAMSTER, LIVER, S-9, AROCLOR 1254 (10 OR 30%), Method: PREINCUBATION inactive; negative | Test System: AMES SALMONELLA TYPHIMURIUM, Strain/Indicator: TA97, Metabolic Activation: NONE, Method: PREINCUBATION inactive; negative | Test System: AMES SALMONELLA TYPHIMURIUM, Strain/Indicator: TA97, Metabolic Activation: NONE, Method: PREINCUBATION (20 MIN) inactive; negative | Test System: AMES SALMONELLA TYPHIMURIUM, Strain/Indicator: TA97, Metabolic Activation: NONE, Method: STANDARD PLATE inactive; negative | Test System: AMES SALMONELLA TYPHIMURIUM, Strain/Indicator: TA97, Metabolic Activation: RAT, LIVER, S-9, AROCLOR 1254 (10 OR 30%), Method: PREINCUBATION inactive; negative | Test System: AMES SALMONELLA TYPHIMURIUM, Strain/Indicator: TA97, Metabolic Activation: RAT, LIVER, S-9, AROCLOR 1254, Method: STANDARD PLATE inactive; negative | Test System: AMES SALMONELLA TYPHIMURIUM, Strain/Indicator: TA97, Metabolic Activation: RAT, LIVER, S-9, PHENOBARBITAL AND 5,6-BENZOFLAVONE, Method: PREINCUBATION (20 MIN) inactive; negative | Test System: AMES SALMONELLA TYPHIMURIUM, Strain/Indicator: TA98, Metabolic Activation: HAMSTER, LIVER, S-9, AROCLOR 1254 (10 OR 30%), Method: PREINCUBATION inactive; negative | Test System: AMES SALMONELLA TYPHIMURIUM, Strain/Indicator: TA98, Metabolic Activation: NONE, Method: FLUCTUATION (MICROTITER) inactive; negative | Test System: AMES SALMONELLA TYPHIMURIUM, Strain/Indicator: TA98, Metabolic Activation: NONE, Method: PREINCUBATION inactive; negative | Test System: AMES SALMONELLA TYPHIMURIUM, Strain/Indicator: TA98, Metabolic Activation: NONE, Method: PREINCUBATION (20 MIN) inactive; negative | Test System: AMES SALMONELLA TYPHIMURIUM, Strain/Indicator: TA98, Metabolic Activation: NONE, Method: STANDARD PLATE inactive; negative | Test System: AMES SALMONELLA TYPHIMURIUM, Strain/Indicator: TA98, Metabolic Activation: RAT LIVER S-9, AROCLOR 1254, Method: FLUCTUATION (MICROTITER) inactive; negative | Test System: AMES SALMONELLA TYPHIMURIUM, Strain/Indicator: TA98, Metabolic Activation: RAT, LIVER, S-9, AROCLOR 1254 (10 OR 30%), Method: PREINCUBATION inactive; negative | Test System: AMES SALMONELLA TYPHIMURIUM, Strain/Indicator: TA98, Metabolic Activation: RAT, LIVER, S-9, AROCLOR 1254, Method: STANDARD PLATE inactive; negative | Test System: AMES SALMONELLA TYPHIMURIUM, Strain/Indicator: TA98, Metabolic Activation: RAT, LIVER, S-9, PHENOBARBITAL AND 5,6-BENZOFLAVONE, Method: PREINCUBATION (20 MIN) inactive; negative | Test System: AMES SALMONELLA TYPHIMURIUM, Strain/Indicator: TA100, Metabolic Activation: HAMSTER, LIVER, S-9, AROCLOR 1254 (10 OR 30%), Method: PREINCUBATION inactive; negative | Test System: AMES SALMONELLA TYPHIMURIUM, Strain/Indicator: TA100, Metabolic Activation: NONE, Method: PREINCUBATION inactive; negative | Test System: AMES SALMONELLA TYPHIMURIUM, Strain/Indicator: TA100, Metabolic Activation: NONE, Method: PREINCUBATION (20 MIN) inactive; negative | Test System: AMES SALMONELLA TYPHIMURIUM, Strain/Indicator: TA100, Metabolic Activation: NONE, Method: STANDARD PLATE inactive; negative | Test System: AMES SALMONELLA TYPHIMURIUM, Strain/Indicator: TA100, Metabolic Activation: RAT, LIVER, S-9, AROCLOR 1254 (10 OR 30%), Method: PREINCUBATION inactive; negative | Test System: AMES SALMONELLA TYPHIMURIUM, Strain/Indicator: TA100, Metabolic Activation: RAT, LIVER, S-9, AROCLOR 1254, Method: STANDARD PLATE inactive; negative | Test System: AMES SALMONELLA TYPHIMURIUM, Strain/Indicator: TA100, Metabolic Activation: RAT, LIVER, S-9, PHENOBARBITAL AND 5,6-BENZOFLAVONE, Method: PREINCUBATION (20 MIN) inactive; negative | Test System: AMES SALMONELLA TYPHIMURIUM, Strain/Indicator: TA102, Metabolic Activation: NONE, Method: PREINCUBATION (20 MIN) inactive; negative | Test System: AMES SALMONELLA TYPHIMURIUM, Strain/Indicator: TA102, Metabolic Activation: RAT, LIVER, S-9, PHENOBARBITAL AND 5,6-BENZOFLAVONE, Method: PREINCUBATION (20 MIN) inactive; negative | Test System: AMES SALMONELLA TYPHIMURIUM, Strain/Indicator: TA104, Metabolic Activation: NONE, Method: PREINCUBATION (20 MIN) inactive; negative | Test System: AMES SALMONELLA TYPHIMURIUM, Strain/Indicator: TA104, Metabolic Activation: RAT, LIVER, S-9, PHENOBARBITAL AND 5,6-BENZOFLAVONE, Method: PREINCUBATION (20 MIN) inactive; negative | Test System: AMES SALMONELLA TYPHIMURIUM, Strain/Indicator: TA1535, Metabolic Activation: HAMSTER, LIVER, S-9, AROCLOR 1254 (10 OR 30%), Method: PREINCUBATION inactive; negative | Test System: AMES SALMONELLA TYPHIMURIUM, Strain/Indicator: TA1535, Metabolic Activation: NONE, Method: PREINCUBATION inactive; negative | Test System: AMES SALMONELLA TYPHIMURIUM, Strain/Indicator: TA1535, Metabolic Activation: NONE, Method: PREINCUBATION (20 MIN) inactive; negative
